# Reference: US20240358693A1, “METHODS OF TREATING PAIN” (Aisa Pharma, Inc., priority 2023, published 2024)
# Tested on: participants with SSc-RP
# Test: Scleroderma Health Assessment Questionnaire (SHAQ): disability indices and visual analog scales
# Type: in vivo, human
# Excerpt: The standard, validated, patient reported outcome measures tool for SSc patients, the Scleroderma Health Assessment Questionnaire (SHAQ), will be used to assess the participant qualify of life. Details are attached in the Appendix. The participant quality of life will be scored, and a disability index calculated for each questionnaire completed by the patient at Screening and each in-clinic visit. The absolute change in participant quality of life from baseline to the end of each dosing period will be calculated similar to frequency data as before.
# The SHAQ includes a Raynaud's VAS, which will be reported at screening and each in-clinic visit. The absolute change in Raynaud-VAS, assessed by the participants response to the SHAQ question ‘In the past 7 days, how much have your Raynaud's interfered with your daily activities?’ at baseline and the end of each dosing period will be calculated similar to frequency data as before.
# The SHAQ is used to calculate a Disability Index to assess the participant qualify of life. The eight categories assessed by the Disability Index are 1) dressing and grooming, 2) arising, 3) eating, 4) walking, 5) hygiene, 6) reach, 7) grip, and 8) common daily activities. For each of these categories, patients report the amount of difficulty they have in performing two or three specific activities.
# There are four possible responses for the Disability Index questions: • Without any difficulty=0 • With some difficulty=1 • With much difficulty=2 • Unable to do=3. • The highest score reported by the patient for any component question of the eight categories determines the score for that category. • If a component question is left blank or the response is too ambiguous to assign a score, then the score for that category is determined by the remaining completed question(s). • If all component questions are blank or if more than one answer is given, then follow up with the respondent is required. • If the respondent's mark is between the response columns, then move it to the closest one. If it's directly between the two, move it to the higher one.
# Each of the disability items on the SHAQ has a companion aids/devices variable that is used to record what type(s) of assistance, if any, the participant uses for his/her usual activities. These variables (see below) are coded as follows: • 0=No assistance is needed. • 1=A special device is used by the patient in his/her usual activities. • 2=The patient usually needs help from another person. • 3=The patient usually needs BOTH a special device AND help from another person.
# The scoring variables and scoring rules permit the computation of two disability indices, the Standard Disability Index and the Alternative Disability Index.
# This question results in a new set of category scores that are computed by adjusting the score for each category, if necessary, based on the patient's use of an aid or device or assistance for that category. If either devices and/or help from another person are checked for a category, the score is set to “2”, unless the score is already “3” (i.e., scores of “0” or “1” are increased to “2”). For example, if the highest score for the dressing category is “1”, and the patient says they use a device for dressing, the computed category score would be “2”. The sum of the computed categories scores is then calculated and divided by the number of categories answered. This gives a score in the 0 to 3 range.
# The aid and device variables are not used to calculate the alternative disability index; it is calculated by adding the scores for each of the categories and dividing by the number of categories answered. This gives a score in the 0 to 3 range.
# The standard, validated, patient reported outcome measures tool for SSc patients, the SHAQ, was collected at the time points specified in the study schedules (FIG. 2 and FIGS. 4A and 4B) to assess the participant's quality of life. The SHAQ included a Raynaud's VAS that will also be reported separately.
# [1] = Pooled Cilnidipine 10 mg and Cilnidipine 10 mg + Tadalafil 5 mg (N = 9), sensitivity analysis, Modified ITT, Part A
# [2] = Pooled Cilnidipine 20 mg and Cilnidipine 20 mg + Tadalafil 5 mg (N = 7), sensitivity analysis, Modified ITT, Part A
# [3] = Pooled Cilnidipine (10 mg or 20 mg) (N = 7)
structure (smiles),measurement,setting,value
"COCCOC(=O)C1=C(C)NC(C)=C(C(=O)OC/C=C/c2ccccc2)C1c1cccc([N+](=O)[O-])c1 (stereo not shown) [Cilnidipine, cilnidipine]","SHAQ VAS Raynaud's: Percent Change from Baseline, Mean",[1],−9.97%
same,"SHAQ VAS Raynaud's: Percent Change from Baseline, Median",[1],−4.39%
same,"SHAQ Standard Disability Index: Baseline, Mean",[2],0.554
same,"SHAQ Standard Disability Index: Baseline, Median",[2],0.375
same,"SHAQ Standard Disability Index: Change from Baseline, Mean",[2],−0.092
same,"SHAQ Standard Disability Index: Change from Baseline, Median",[2],0.000
same,"SHAQ Standard Disability Index: Day 12, Mean",[2],0.462
same,"SHAQ Standard Disability Index: Day 12, Median",[2],0.250
same,"SHAQ Standard Disability Index: Percent Change from Baseline, Mean",[2],−5.99%
same,"SHAQ Standard Disability Index: Percent Change from Baseline, Median",[2],−33.33%
same,"SHAQ VAS Breathing Problems: Baseline, Mean",[2],1.071
same,"SHAQ VAS Breathing Problems: Baseline, Median",[2],0.800
same,"SHAQ VAS Breathing Problems: Change from Baseline, Mean",[2],0.171
same,"SHAQ VAS Breathing Problems: Change from Baseline, Median",[2],0.000
same,"SHAQ VAS Breathing Problems: Day 12, Mean",[2],1.243
same,"SHAQ VAS Breathing Problems: Day 12, Median",[2],0.400
same,"SHAQ VAS Breathing Problems: Percent Change from Baseline, Mean",[2],103.99%
same,"SHAQ VAS Breathing Problems: Percent Change from Baseline, Median",[2],24.48%
same,"SHAQ VAS Finger Ulcers: Baseline, Mean",[2],1.986
same,"SHAQ VAS Finger Ulcers: Baseline, Median",[2],0.100
same,"SHAQ VAS Finger Ulcers: Change from Baseline, Mean",[2],−0.950
same,"SHAQ VAS Finger Ulcers: Change from Baseline, Median",[2],−0.050
same,"SHAQ VAS Finger Ulcers: Day 12, Mean",[2],1.367
same,"SHAQ VAS Finger Ulcers: Day 12, Median",[2],0.350
same,"SHAQ VAS Finger Ulcers: Percent Change from Baseline, Mean",[2],−15.69%
same,"SHAQ VAS Finger Ulcers: Percent Change from Baseline, Median",[2],−48.04%
same,"SHAQ VAS Intestinal Problems: Baseline, Mean",[2],0.886
same,"SHAQ VAS Intestinal Problems: Baseline, Median",[2],1.000
same,"SHAQ VAS Intestinal Problems: Change from Baseline, Mean",[2],0.271
same,"SHAQ VAS Intestinal Problems: Change from Baseline, Median",[2],0.000
same,"SHAQ VAS Intestinal Problems: Day 12, Mean",[2],1.157
same,"SHAQ VAS Intestinal Problems: Day 12, Median",[2],0.200
same,"SHAQ VAS Intestinal Problems: Percent Change from Baseline, Mean",[2],12.47%
same,"SHAQ VAS Intestinal Problems: Percent Change from Baseline, Median",[2],30.00%
same,"SHAQ VAS Overall Disease Severity: Baseline, Mean",[2],3.200
same,"SHAQ VAS Overall Disease Severity: Baseline, Median",[2],2.900
same,"SHAQ VAS Overall Disease Severity: Change from Baseline, Mean",[2],−1.186
same,"SHAQ VAS Overall Disease Severity: Change from Baseline, Median",[2],−1.500
same,"SHAQ VAS Overall Disease Severity: Day 12, Mean",[2],2.014
same,"SHAQ VAS Overall Disease Severity: Day 12, Median",[2],1.200
same,"SHAQ VAS Overall Disease Severity: Percent Change from Baseline, Mean",[2],−44.99%
same,"SHAQ VAS Overall Disease Severity: Percent Change from Baseline, Median",[2],−44.74%
same,"SHAQ VAS Pain: Baseline, Mean",[2],2.667
same,"SHAQ VAS Pain: Baseline, Median",[2],2.550
same,"SHAQ VAS Pain: Change from Baseline, Mean",[2],−0.700
same,"SHAQ VAS Pain: Change from Baseline, Median",[2],−0.650
same,"SHAQ VAS Pain: Day 12, Mean",[2],2.000
same,"SHAQ VAS Pain: Day 12, Median",[2],2.100
same,"SHAQ VAS Pain: Percent Change from Baseline, Mean",[2],−33.40%
same,"SHAQ VAS Pain: Percent Change from Baseline, Median",[2],−51.06%
same,"SHAQ VAS Raynaud's: Baseline, Mean",[2],2.314
same,"SHAQ VAS Raynaud's: Baseline, Median",[2],0.900
same,"SHAQ VAS Raynaud's: Change from Baseline, Mean",[2],−1.014
same,"SHAQ VAS Raynaud's: Change from Baseline, Median",[2],−0.300
same,"SHAQ VAS Raynaud's: Day 12, Mean",[2],1.300
same,"SHAQ VAS Raynaud's: Day 12, Median",[2],0.600
same,"SHAQ VAS Raynaud's: Percent Change from Baseline, Mean",[2],−34.71%
same,"SHAQ VAS Raynaud's: Percent Change from Baseline, Median",[2],−40.67%
same,"SHAQ patient reported disease severity, Change from Baseline, Mean",[3],−1.214
same,"SHAQ patient reported disease severity, Change from Baseline, Median",[3],−1.500
same,"SHAQ patient reported disease severity, In-Clinic Visit (Day 12), Mean",[3],1.486
